The target of data set [1] is T1, Glycogen phosphorylase, muscle form (Oryctolagus cuniculus) (UniProt P00489).
T1 sequence (whole entry): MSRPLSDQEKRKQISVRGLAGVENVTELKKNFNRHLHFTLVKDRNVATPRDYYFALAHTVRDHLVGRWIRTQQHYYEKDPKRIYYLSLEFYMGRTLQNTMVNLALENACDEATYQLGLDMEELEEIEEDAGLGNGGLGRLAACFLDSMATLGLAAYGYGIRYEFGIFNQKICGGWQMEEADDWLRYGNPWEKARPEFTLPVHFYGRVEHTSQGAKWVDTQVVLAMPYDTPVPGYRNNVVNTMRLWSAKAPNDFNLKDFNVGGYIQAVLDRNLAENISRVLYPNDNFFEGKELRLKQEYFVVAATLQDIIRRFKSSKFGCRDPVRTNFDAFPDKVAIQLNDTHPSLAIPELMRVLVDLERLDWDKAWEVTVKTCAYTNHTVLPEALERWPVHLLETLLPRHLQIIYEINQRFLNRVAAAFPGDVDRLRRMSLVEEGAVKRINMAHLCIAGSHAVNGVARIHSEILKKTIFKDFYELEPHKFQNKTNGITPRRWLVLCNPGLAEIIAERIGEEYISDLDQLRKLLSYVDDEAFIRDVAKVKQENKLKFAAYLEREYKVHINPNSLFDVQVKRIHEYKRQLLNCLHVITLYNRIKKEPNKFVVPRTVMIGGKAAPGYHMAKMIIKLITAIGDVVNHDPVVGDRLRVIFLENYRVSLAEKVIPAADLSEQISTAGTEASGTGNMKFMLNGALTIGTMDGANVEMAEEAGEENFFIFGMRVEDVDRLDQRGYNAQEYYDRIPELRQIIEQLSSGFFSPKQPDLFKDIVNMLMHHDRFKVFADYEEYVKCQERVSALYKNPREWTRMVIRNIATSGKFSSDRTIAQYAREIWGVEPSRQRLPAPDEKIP
In words: Inhibition of rabbit skeletal muscle glycogen phosphorylase-B using glucose-1-phosphate substrate assessed as […] in phosphate release at 1000 uM.

Data set [2] addresses T1, Glycogen phosphorylase, muscle form (Oryctolagus cuniculus). Kind of data set: Inhibition of rabbit skeletal muscle glycogen phosphorylase-B using glucose-1-phosphate substrate assessed as […] in phosphate release at 250 uM.
Data set [3] in a line: Solubility of compound in water in presence of 20% DMSO. The data set is classed as physicochemical. The note with it: buffer.
For data set [4], the target named is T1, Glycogen phosphorylase, muscle form (Oryctolagus cuniculus). In words: Inhibition of rabbit skeletal muscle glycogen phosphorylase-B using glucose-1-phosphate substrate assessed as […] in phosphate release at 300 uM.

Take `O=C(NCC(CNC(=O)c1ccccc1)[C@@H]1O[C@H](CO)[C@@H](O)[C@H](O)[C@H]1O)c1ccccc1`: the inhibition in data set [1] turned out to be 21%. On to `OC[C@H]1O[C@@H](C(c2nc(-c3ccc4ccccc4c3)no2)c2nc(-c3ccc4ccccc4c3)no2)[C@H](O)[C@@H](O)[C@@H]1O`, for which, in data set [2], the inhibition came out at 38%. In addition, the solubility entry in data set [3] is listed as “Insoluble”.

For the molecule `O=C(NCC(CNC(=O)c1ccc2ccccc2c1)[C@@H]1O[C@H](CO)[C@@H](O)[C@H](O)[C@H]1O)c1ccc2ccccc2c1`, the inhibition in data set [4] came to 44%. Turning to `O=C1NCC([C@@H]2O[C@H](CO)[C@@H](O)[C@H](O)[C@H]2O)CN1`, in data set [1], the inhibition was determined as 8.5%. The same measure, in the same setting: the result for `Cc1ccc(-c2noc(C(c3nc(-c4ccc(C)cc4)no3)[C@@H]3O[C@H](CO)[C@@H](O)[C@H](O)[C@H]3O)n2)cc1` reads 39%.

The values above are taken from ChEMBL document CHEMBL2086374, “C-Glucosylated malonitrile as a key intermediate towards carbohydrate-based glycogen phosphorylase inhibitors” (Bioorg Med Chem, 2012).
